Assay results from patent US20120028358A1, “METHOD FOR INCREASING RETROVIRAL INFECTIVITY” (priority 2010, published 2012).

Test system: rat PMVEC
Assay: Gamma-retroviral infection efficiency of PMVEC (percent fluorescent cells by FACS)
Assay type: cell-based
Conditions: 1 μmol/L; MMLV with ecotropic, amphotropic, VSV-G pantropic envelope
Description: Cell cultures: Phoenix Retroviral Expression System ecotropic and amphotropic packaging cells were purchased from Orbigen, Inc. (San Diego, Calif.). […] Rat pulmonary microvascular endothelial cells (PMVEC), were obtained from our cell culture core at the University of South Alabama (King J, et al. Structural and functional characteristics of lung macro and microvascular endothelial phenotypes. Microvascular Res. 2004, March, 67(2). 139-151). Human glioblastoma cells (U87MG), and human mammary carcinoma cells (T47D) were obtained from ATCC. All cells were cultured in DMEM, 10% FBS, 2 mmol L-Glutamine and used for experiments at passages 4-9. All cells were grown in humidified incubators at 37° C. in 5% CO2. Cells were harvested by 0.05% trypsin/0.53 mM EDTA digestion, washed, re-suspended in cultured medium and analyzed directly by FACScan in the University of South Alabama Flow Cytometry Core. For cell cycle analysis cellular DNA was stained with […] of propridium iodide for 20 minutes as described elsewhere (48) and then analyzed by FACScan.
Vectors and delivery systems: pBMN-GFP (Orbigen, Inc., San Diego, Calif.), a retroviral vector that expresses GFP driven by the MMLV's promoter in Phoenix and other cells was used. […]

CC#C[C@]1(O)CC[C@H]2[C@@H]3CCC4=CC(=O)CCC4=C3[C@@H](c3ccc(N(C)C)cc3)C[C@@]21C [mifepristone, 11-beta-(4-dimethylaminophenyl)-17-beta-hydroxy-17-alpha-(1-propynyl)-estra-4,9-dien-3-one]
Percentage of infected cells: doubled
